# Test results published in PubChem BioAssay AID1963847 (Molecular Pharmacology Branch, DTP, NCI, 2024).
# System: 415267-285-R-J2-PDC complex spheroid viability
# Assay: Anticancer human tumor 415267-285-R-J2-PDC patient-derived breast carcinoma cell line growth inhibition [POLQ]
# Details: for IC50: curve of first compound; for viability, T/C: stronger effect = lower value
# How it was run: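 Three-cell-type spheroids modelling solid tumor plus stroma served as the readout system; POL inhibitors were tested individually and in combination, concentration ranges set by clinical Cmax where known.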
# [1] = second compound 0.0316 µM, first compound 0.00316 µM
# [2] = second compound 0.0316 µM, first compound 0.01 µM
# [3] = second compound 0.0316 µM, first compound 0.0316 µM
# [4] = second compound 0.0316 µM, first compound 0.1 µM
# [5] = second compound 0.0316 µM, first compound 0.316 µM
# [6] = second compound 0.0316 µM, first compound 1 µM
# [7] = second compound 0.1 µM, first compound 0.00316 µM
# [8] = second compound 0.1 µM, first compound 0.01 µM
# [9] = second compound 0.1 µM, first compound 0.0316 µM
# [10] = second compound 0.1 µM, first compound 0.1 µM
# [11] = second compound 0.1 µM, first compound 0.316 µM
# [12] = second compound 0.1 µM, first compound 1 µM
# [13] = second compound 0.316 µM, first compound 0.00316 µM
# [14] = second compound 0.316 µM, first compound 0.01 µM
# [15] = second compound 0.316 µM, first compound 0.0316 µM
# [16] = second compound 0.316 µM, first compound 0.1 µM
# [17] = second compound 0.316 µM, first compound 0.316 µM
# [18] = second compound 0.316 µM, first compound 1 µM
# [19] = second compound 1 µM, first compound 0.00316 µM
# [20] = second compound 1 µM, first compound 0.01 µM
# [21] = second compound 1 µM, first compound 0.0316 µM
# [22] = second compound 1 µM, first compound 0.1 µM
# [23] = second compound 1 µM, first compound 0.316 µM
# [24] = second compound 1 µM, first compound 1 µM
# [25] = second compound 3.16 µM, first compound 0.00316 µM
# [26] = second compound 3.16 µM, first compound 0.01 µM
# [27] = second compound 3.16 µM, first compound 0.0316 µM
# [28] = second compound 3.16 µM, first compound 0.1 µM
# [29] = second compound 3.16 µM, first compound 0.316 µM
# [30] = second compound 3.16 µM, first compound 1 µM
# [31] = second compound 10 µM, first compound 0.00316 µM
# [32] = second compound 10 µM, first compound 0.01 µM
# [33] = second compound 10 µM, first compound 0.0316 µM
# [34] = second compound 10 µM, first compound 0.1 µM
# [35] = second compound 10 µM, first compound 0.316 µM
# [36] = second compound 10 µM, first compound 1 µM
# 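Further: spheroids exposed to compounds for one week before readout.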
# 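Wherever viability, T/C is given: luminescence used as stand-in measure of viable cells; 100% = DMSO vehicle control viability.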
compound,measurement,setting,value
C=CCn1c(=O)c2cnc(Nc3ccc(N4CCN(C)CC4)cc3)nc2n1-c1cccc(C(C)(C)O)n1 + COC1C(OC(N)=O)C(O)C(Oc2ccc3c(O)c(NC(=O)c4ccc(O)c(CC=C(C)C)c4)c(=O)oc3c2C)OC1(C)C,IC50,second compound 0.0316 µM,347 nM
same,IC50,second compound 0.1 µM,269 nM
same,IC50,second compound 0.316 µM,262 nM
same,IC50,second compound 1 µM,269 nM
same,IC50,second compound 3.16 µM,249 nM
same,IC50,second compound 10 µM,267 nM
same,"viability, T/C",[1],106%
same,"viability, T/C",[2],96.1%
same,"viability, T/C",[3],105%
same,"viability, T/C",[4],101%
same,"viability, T/C",[5],53.7%
same,"viability, T/C",[6],7.91%
same,"viability, T/C",[7],96%
same,"viability, T/C",[8],95.3%
same,"viability, T/C",[9],101%
same,"viability, T/C",[10],99.1%
same,"viability, T/C",[11],42.1%
same,"viability, T/C",[12],7.89%
same,"viability, T/C",[13],114%
same,"viability, T/C",[14],110%
same,"viability, T/C",[15],100%
same,"viability, T/C",[16],116%
same,"viability, T/C",[17],38.1%
same,"viability, T/C",[18],7.25%
same,"viability, T/C",[19],105%
same,"viability, T/C",[20],119%
same,"viability, T/C",[21],95.8%
same,"viability, T/C",[22],89.9%
same,"viability, T/C",[23],42.9%
same,"viability, T/C",[24],7.39%
same,"viability, T/C",[25],111%
same,"viability, T/C",[26],101%
same,"viability, T/C",[27],103%
same,"viability, T/C",[28],95.9%
same,"viability, T/C",[29],38.1%
same,"viability, T/C",[30],8.1%
same,"viability, T/C",[31],112%
same,"viability, T/C",[32],93.9%
same,"viability, T/C",[33],106%
same,"viability, T/C",[34],97.9%
same,"viability, T/C",[35],41.7%
same,"viability, T/C",[36],9.2%
CCCS(=O)(=O)Nc1ccc(F)c(C(=O)c2c[nH]c3ncc(-c4ccc(Cl)cc4)cc23)c1F + COC1C(OC(N)=O)C(O)C(Oc2ccc3c(O)c(NC(=O)c4ccc(O)c(CC=C(C)C)c4)c(=O)oc3c2C)OC1(C)C,IC50,second compound 0.0316 µM,> 10000 nM
same,IC50,second compound 0.1 µM,> 10000 nM
same,IC50,second compound 0.316 µM,> 10000 nM
same,IC50,second compound 1 µM,> 10000 nM
same,IC50,second compound 3.16 µM,> 10000 nM
same,IC50,second compound 10 µM,> 10000 nM
same,"viability, T/C",[3],123%
same,"viability, T/C",[4],102%
same,"viability, T/C",[5],94.5%
same,"viability, T/C",[6],89%
same,"viability, T/C","second compound 0.0316 µM, first compound 3.16 µM",110%
same,"viability, T/C","second compound 0.0316 µM, first compound 10 µM",66.4%
same,"viability, T/C",[9],103%
same,"viability, T/C",[10],100%
same,"viability, T/C",[11],97.3%
same,"viability, T/C",[12],101%
same,"viability, T/C","second compound 0.1 µM, first compound 3.16 µM",111%
same,"viability, T/C","second compound 0.1 µM, first compound 10 µM",66.5%
same,"viability, T/C",[15],101%
same,"viability, T/C",[16],105%
same,"viability, T/C",[17],99%
same,"viability, T/C",[18],104%
same,"viability, T/C","second compound 0.316 µM, first compound 3.16 µM",92.4%
same,"viability, T/C","second compound 0.316 µM, first compound 10 µM",70.9%
same,"viability, T/C",[21],103%
same,"viability, T/C",[22],106%
same,"viability, T/C",[23],94%
same,"viability, T/C",[24],94.8%
same,"viability, T/C","second compound 1 µM, first compound 3.16 µM",92.6%
same,"viability, T/C","second compound 1 µM, first compound 10 µM",64.7%
same,"viability, T/C",[27],109%
same,"viability, T/C",[28],96.6%
same,"viability, T/C",[29],90.2%
same,"viability, T/C",[30],95.2%
same,"viability, T/C","second compound 3.16 µM, first compound 3.16 µM",101%
same,"viability, T/C","second compound 3.16 µM, first compound 10 µM",60.5%
same,"viability, T/C",[33],116%
same,"viability, T/C",[34],106%
same,"viability, T/C",[35],97.8%
same,"viability, T/C",[36],91.4%
same,"viability, T/C","second compound 10 µM, first compound 3.16 µM",93.2%
same,"viability, T/C","second compound 10 µM, first compound 10 µM",88.4%
CCc1c2c(nc3ccc(O)cc13)-c1cc3c(c(=O)n1C2)COC(=O)[C@]3(O)CC + COC1C(OC(N)=O)C(O)C(Oc2ccc3c(O)c(NC(=O)c4ccc(O)c(CC=C(C)C)c4)c(=O)oc3c2C)OC1(C)C,IC50,second compound 0.0316 µM,< 3.16 nM
same,IC50,second compound 0.1 µM,< 3.16 nM
same,IC50,second compound 0.316 µM,< 3.16 nM
same,IC50,second compound 1 µM,< 3.16 nM
same,IC50,second compound 3.16 µM,< 3.16 nM
same,IC50,second compound 10 µM,< 3.16 nM
same,"viability, T/C",[1],32.7%
same,"viability, T/C",[2],10%
same,"viability, T/C",[3],6.54%
same,"viability, T/C",[4],4.82%
same,"viability, T/C",[5],3.41%
same,"viability, T/C",[6],1.27%
same,"viability, T/C",[7],38.3%
same,"viability, T/C",[8],11%
same,"viability, T/C",[9],7.02%
same,"viability, T/C",[10],5.02%
same,"viability, T/C",[11],3.21%
same,"viability, T/C",[12],1.32%
same,"viability, T/C",[13],36.5%
same,"viability, T/C",[14],11%
same,"viability, T/C",[15],9.37%
same,"viability, T/C",[16],4.84%
same,"viability, T/C",[17],5.41%
same,"viability, T/C",[18],1.19%
same,"viability, T/C",[19],43.8%
same,"viability, T/C",[20],9.67%
same,"viability, T/C",[21],7.66%
same,"viability, T/C",[22],4.1%
same,"viability, T/C",[23],4.05%
same,"viability, T/C",[24],1.96%
same,"viability, T/C",[25],39.8%
same,"viability, T/C",[26],9.67%
same,"viability, T/C",[27],6.74%
same,"viability, T/C",[28],4.81%
same,"viability, T/C",[29],3.35%
same,"viability, T/C",[30],1.51%
same,"viability, T/C",[31],40.3%
same,"viability, T/C",[32],10.1%
same,"viability, T/C",[33],7.22%
same,"viability, T/C",[34],4.24%
same,"viability, T/C",[35],3.48%
same,"viability, T/C",[36],1.63%
